Results reported in PMC9848351, “Discovery of new pyridine-quinoline hybrids as competitive and non-competitive PIM-1 kinase inhibitors with apoptosis induction and caspase 3/7 activation capabilities” (Journal of Enzyme Inhibition and Medicinal Chemistry, 2023).

Columns and labels:
[1] = tested on: Colon cancer cells (Caco-2); assay: MTT anticancer activity, Caco-2; assay type: cell-based, human
Procedure, shortened: (§1)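 Cells seeded at 5x10^3/well (Caco-2 in DMEM, others in RPMI-1640, 10% FBS) and exposed to serial compound concentrations for 72 h at 37 °C, 5% CO2, starting 24 h after seeding. MTT (3 h, 37 °C) read at 570 nm after DMSO solubilisation; IC50 calculated from viability.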

PC-3 = assay: Flow cytometric annexin V/PI analysis of apoptosis, PC-3; assay type: cell-based, human; settings: IC50 of compound, 72 h, mean ± SEM
Description: (§2) The apoptosis-dependent […] was determined by quantification of annexin-stained apoptotic cells using the FITC signal detector (FL1) against the phycoerythrin emission signal detector (FL2) (Supplementary Page S55). […]
(§3) MTT method was used for assaying cell viability 25. Twenty microliters of 5 mg/ml MTT (Sigma, USA) was added to each well and the plate was incubated at […]
(§4) 37 °C for 3 h. […]
(§5) Graphpad Instat software.
(§6) Determination of the anticancer activity
(§7) Anticancer effect of the above-mentioned compounds was evaluated using four human cancer cell lines. Colon cancer cells (Caco-2) were maintained in DMEM (Lonza, USA) containing 10% FBS while myeloid leukemia cell line (NFS-60), liver cancer cell line (HepG-2) and prostate cancer cell line (PC-3) were cultured in RPMI-1640 (Lonza, USA) supplemented with 10% FBS. All cancer cells (5x10^3 cells/well) were seeded in sterile 96-well plates. After 24h, serial concentrations of the tested compounds and Dox were incubated with four cancer cell lines for 72 h at 37 °C in 5% CO2 incubator. MTT method was done as described above. The Graphpad Instat software was used for calculating the half maximal inhibitory concentration (IC50) values. […]
(§8) Flow cytometric analysis of apoptosis
(§9) Caco-2, PC-3 and NFS-60 cell lines. After trypsinization, the untreated and treated cells were incubated with annexin V/PI for 15 min. Then cells were fixed and incubated with streptavidin-fluorescein (5 µg/mL) for 15 min. The apoptosis-dependent anticancer effect was determined by quantification of annexin-stained apoptotic cells using the FITC signal detector (FL1) against the phycoerythrin emission signal detector (FL2). […]

[2] = tested on: myeloid leukaemia cell line (NFS-60); assay: MTT anticancer activity, NFS-60; assay type: cell-based; settings: NFS-60, 72 h, MTT; mean ± SEM
Procedure, shortened: as §1

[3] = tested on: liver cancer cell line (HepG-2); assay: MTT anticancer activity, HepG-2; assay type: cell-based, human; settings: Homo sapiens, HepG2; HepG-2, 72 h, MTT; mean ± SEM
Procedure, shortened: as §1

HepG-2 = assay: Flow cytometric annexin V/PI analysis of apoptosis, HepG-2; assay type: cell-based, human; settings: IC50 of compound, 72 h, mean ± SEM
[4] = tested on: prostate cancer cell line (PC-3); assay: MTT anticancer activity, PC-3; assay type: cell-based, human; settings: Homo sapiens, 72 h, PC-3, 72 h, mean ± SEM
Procedure, shortened: as §1

NFS-60 = assay: Flow cytometric annexin V/PI analysis of apoptosis, NFS-60; assay type: cell-based, human; settings: IC50 of compound, 72 h, mean ± SEM
Description: as §2, §3, §4, §5, §6, §7, §8, §9

[5] = tested on: normal human lung fibroblast Wi-38 cell line; assay: MTT cytotoxicity on normal cells; assay type: cell-based
Procedure, shortened: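 Wi-38 fibroblasts in DMEM with 10% FBS were seeded at 5x10^3 cells/well, left 24 h to attach, then exposed to serial compound concentrations for 72 h at 37 °C, 5% CO2. MTT was added for 3 h, formazan dissolved in DMSO and absorbance read at 570 nm. IC50 and EC100 (safe dose) were estimated from the concentration series.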

PIM-1 kinase [6] = molecular target: T1, PIM-1 kinase (Homo sapiens, UniProt P11309); assay: Mechanism of PIM-1 kinase inhibition, Lineweaver–Burk double-reciprocal plot; assay type: biochemical; set-up: purchased Promega Corporation #V4032
PIM-2 kinase = PIM-2 kinase (Homo sapiens, UniProt Q9P1W9); assay: PIM-2 kinase inhibitory activity (Promega kinase assay kit)
PIM-1 kinase [7] = molecular target: T1, PIM-1 kinase; assay: PIM-1 kinase inhibitory activity (Promega kinase assay kit)
[8] = tested on: HepG-2, Caco-2, NFS-60, and PC-3 cancer cell lines; assay type: cell-based, human
Description: as §2
(§10) MTT method was used for assaying cell viability 25. Twenty microliters of 5 mg/ml MTT (Sigma, USA) was added to each well and the plate was incubated at 37 °C for 3 h. Then MTT solution was removed, 100 µl DMSO was used and the absorbance of each well was measured with a microplate reader ( BMG LabTech, […]
(§11) Germany) at 570 nm. […]
as §5, §6
Anticancer effect of the above-mentioned compounds was evaluated using four human cancer cell lines. Colon cancer cells (Caco-2) were maintained in DMEM (Lonza, USA) containing 10% FBS while myeloid leukemia cell line (NFS-60), liver cancer cell line (HepG-2) and prostate cancer cell line (PC-3) were cultured in RPMI-1640 (Lonza, USA) supplemented with 10% FBS. All cancer cells (5x10^3 cells/well) were seeded in sterile 96-well plates. […]
Caco-2, PC-3 and NFS-60 cell lines. […] The apoptosis-dependent anticancer effect was determined by quantification of annexin-stained apoptotic cells using the FITC signal detector (FL1) against the phycoerythrin emission signal detector (FL2). […]

[9] = tested on: caspase 3/7 in HepG-2 cells; assay: Caspase 3/7 activation assay (Apo-ONE kit); assay type: cell-based, human; settings: caspase 3/7, relative to untreated HepG2 cells; mean ± SEM
Source text: The percentage of caspase 3/7 activation was quantified using the Apo-ONE ® caspase 3/7 kit following the manufacturer’s instructions[27] (Supplementary Page S56).
It’s a fluorescence assay that measures caspase-3 and −7 activities. Caspase 3/7 activators are well known as apoptotic inducers.
Caspase 3/7 activation assay
The Apo-ONE ® caspase 3/7 kit following the manufacturer’s instructions was used for quantifying the percentage of caspase 3/7 activation. The fluorescence substrate present in the kit was cut by caspases to produce fluorescence signal. This signal was measured by the fluorescence omega microplate reader (BMG LabTech, Germany) at 490 nm excitation and 520 nm emission.
Data were expressed as mean ± standard error of the mean (SEM). Statistical significance was estimated by the multiple comparisons Tukey post-hoc analysis of variance (ANOVA) using the SPSS16 program. When p < 0.05, the differences were marked as statistically significant.
PIM-1 and PIM-2 kinase inhibitory activity
PIM-1 and PIM-2 kinase utilizing PIM-1 and PIM-2 Kinase Assay Kit – Promega Corporation catalog #V4032, following the manufacturer’s instructions 26 […]
Information Classification: General

Caco-2 = assay: Flow cytometric annexin V/PI analysis of apoptosis, Caco-2; assay type: cell-based; settings: IC50 of compound, 72 h, mean ± SEM
Description: as §2, §10, §11, §5, §6
Anticancer effect of the above-mentioned compounds was evaluated using four human […]
cancer cell lines. […]
All cancer cells (5x10^3 cells/well) were seeded in sterile
96-well plates. After 24h, serial concentrations of the tested compounds and Dox were incubated with four cancer cell lines for 72 h at 37 °C in 5% CO2 incubator. MTT method was done as described above. The Graphpad Instat software was used for calculating the half maximal inhibitory concentration (IC50) values. […]
as §8, §9

T1 sequence (P11309 whole entry): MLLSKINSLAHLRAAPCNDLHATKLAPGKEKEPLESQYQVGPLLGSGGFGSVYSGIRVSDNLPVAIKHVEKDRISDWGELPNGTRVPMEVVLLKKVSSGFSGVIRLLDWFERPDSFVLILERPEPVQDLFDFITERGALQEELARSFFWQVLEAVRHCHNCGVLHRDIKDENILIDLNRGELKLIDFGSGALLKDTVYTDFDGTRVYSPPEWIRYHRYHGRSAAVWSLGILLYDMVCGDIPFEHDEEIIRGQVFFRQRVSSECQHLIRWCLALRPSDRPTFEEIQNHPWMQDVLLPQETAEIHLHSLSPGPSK
Sequence of PIM-2 kinase (Q9P1W9 whole entry): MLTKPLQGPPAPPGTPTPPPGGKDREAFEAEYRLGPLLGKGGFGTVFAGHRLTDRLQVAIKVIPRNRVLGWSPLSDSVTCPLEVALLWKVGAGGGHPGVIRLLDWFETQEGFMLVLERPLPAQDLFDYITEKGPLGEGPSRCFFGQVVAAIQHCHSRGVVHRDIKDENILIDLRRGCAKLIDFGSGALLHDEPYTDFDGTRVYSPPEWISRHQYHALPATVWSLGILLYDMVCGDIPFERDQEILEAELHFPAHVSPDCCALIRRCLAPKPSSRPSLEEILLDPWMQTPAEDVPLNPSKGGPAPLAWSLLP

Row | Structure (SMILES) | IC50 ([1]; Homo sapiens, Caco-2, 72 h, MTT, mean ± SEM) [nM] | Caco-2 LE ([1]; ligand efficiency from IC50 and number of heavy atoms) | Caco-2 LLE ([1]; ligand lipophilic efficiency, potency in terms of lipophilicity) | Caco-2 SI ([1]; selectivity index, Wi-38 versus Caco-2) | total percentage of the apoptotic cell population, PC-3 (PC-3) [%] | IC50 [2] [nM] | IC50 [3] [nM] | total percentage of the apoptotic cell population, HepG-2 (HepG-2) [%] | IC50 [4] [nM] | total percentage of the apoptotic cell population, NFS-60 (NFS-60) [%] | EC50 ([5]; Homo sapiens, Wi-38, 72 h, MTT, 50% cell viability, mean ± SEM) [nM] | Wi-38 EC100 ([5]; Wi-38, 72 h, MTT, safe dose, 100% cell viability, mean ± SEM) [µM] | mechanism of PIM-1 kinase inhibition (PIM-1 kinase [6]) | Vmax compared with control (PIM-1 kinase [6]; Y-intercept) | IC50 (PIM-2 kinase) [nM] | IC50 (PIM-1 kinase [7]) [nM] | apoptosis-dependent death / percentage of annexin-stained population cells [8] | IC50 ([5]; Homo sapiens, Wi-38, MTT, read-out: IC50 on human lung fibroblasts (Wi-38)) [nM] | Fold increase in caspase activity [9] [fold] | total percentage of the apoptotic cell population, Caco-2 (Caco-2) [%]
1 | COc1ccc2nc(N3CCCCC3)c(-c3cc(-c4cccc(O)c4)nc(S)c3C#N)cc2c1 [6e, 6-(3-Hydroxyphenyl)-4-(6-methoxy-2-(piperidin-1-yl)quinolin-3-yl)-2-mercaptopyridine-3-carbonitrile] | 27 ± 2 | 0.30 | 2.73 | 5.741 | 68.81 ± 0.49 | 53.9 ± 0.1 | 12.2 ± 0.1 | 69.02 ± 0.18 | 42.9 ± 3 | 68.385 ± 0.54 | 155 ± 3 | 0.0277 ± 0.0001 | competitive inhibitors | the same Vmax in comparison with control | 1490 | 1100 | – | – | – | –
2 | COc1cccc2c1C(=O)c1c(O)c3c(c(O)c1C2=O)C[C@@](O)(C(=O)CO)C[C@@H]3O[C@H]1C[C@H](N)[C@H](O)[C@H](C)O1 [Dox, doxorubicin, reference compound] | – | – | – | – | 34.59 ± 0.21 | 33.2 | 50.4 | 39.265 ± 0.81 | – | 37.89 ± 0.28 | – | – | – | – | – | – | less than 39% | 26.6 | 1.61 ± 0.088 | 36.08 ± 0.23
